This assay concerns the target NaV1.7 (Homo sapiens (Human), UniProt Q15858). Put plainly: NaV1.7 IC50 of Table 1 (IonWorks Barracuda population patch clamp or ligand binding assay; table does not say which). Conditions: HEK 293 cells expressing NaV1.7. The class given is cell-based. As to the method: Ion Works Barracuda population patch clamp (PPC). PPC measurements were performed using an IonWorks Barracuda instrument (Molecular Devices Corporation, Union City, Calif.) using either PatchPlate™ PPC substrates (Molecular Devices Corporation) with 64 apertures per well. The ability to average currents from 64 recordings from each well greatly improves data consistency and recording success rates in the measurement of NaV1.7 mediated ionic currents. Calculated leak current was digitally subtracted from the total cell NaV1.7 current for each sample point acquired.
NaV1.7 currents were elicited by a voltage clamp protocol designed to bias the NaV1.7 channels to their inactivated state as follows. […] This was followed by a relatively brief hyperpolarization to −100 mv for 300 ms, then a 20 msec test pulse to −20 mV to elicit the NaV1.7 current used to measure the pharmacology of all test compounds. Compounds were incubated for 600 sec between the pre- and post-compound reads. […] The same solutions were used to record NaV1.5 currents, with the following voltage clamp protocol. NaV1.5 currents were elicited by a voltage clamp protocol designed to bias the NaV1.5 channels to their inactivated state as follows. […] This was followed by a relatively brief hyperpolarization to −100 mv for 30 ms, then a 20 msec test pulse to −10 mV to elicit the NaV1.5 current used to measure the pharmacology of all test compounds.
HEK 293 cells expressing NaV1.7 and NaV1.5 channels, were used (Essen Biosciences, Ann Arbor, Mich.). […] Cells were grown to 70% to 90% confluence in a flask and removed from the incubator (37° C., 5% CO2) 1 to 3 days after plating. Growth medium was aspirated from the culture flasks. […] Next a total of 2 mL TrypLE (Gibco) solution was added, and the flasks containing cells were sat for 3 min at RT, after which, the cells became visibly rounded and were easily dislodged from the bottom of the flask with a few brief taps on a solid surface. A total of 8 mL of media was added to the flask to inactivate the TrypLE, and the mixture was centrifuged at 910 rpm for 4 min. The cell supernatant was decanted, and the cell pellets were resuspended in 5-6 mL of external solution followed by gentle triturations using a 10 ml pipette, and transferred to a 15 ml conical tube and immediately brought to the IW Barracuda instrument.
Peak membrane currents were analyzed with IW Barracuda software and exported to Excel for further analysis. Concentration response curve fitting was performed with BMS in-house software. IC50 values were obtained by fits of the Hill equation to the average percent inhibition data plotted versus compound concentration. […] Results are reported in Table 1 (NaV1.7 Barra IC50 in nM and NaV1.5 Barra IC50 in nM).
hNaV1.7 binding affinities were determined with a filtration binding assay using purified membranes from HEK293 cells stably expressing hNaV1.7. HEK293 cells from a 10-stack cell culture flask (approximately 10^10 cells) were dissociated, frozen, and stored at −80° C. To prepare membranes, the frozen cell pellet was thawed and suspended in 6 ml hypotonic lysis buffer (50 mM HEPES, 0.1% mammalian protease inhibitor cocktail). 1 ml of resuspended cells was added to an additional 6 ml of lysis buffer and homogenized with 30 strokes of a tight pestle in a glass homogenizer. Homogenate was centrifuged at 1000×g for 10 minutes at 4° C. and the resulting supernatant was further centrifuged at 38,500×g for 60 minutes at 4° C. The resulting pellet was resuspended in binding buffer (50 mM HEPES, 130 mM NaCl, 5.4 mM KCl, 0.8 mM MgCl2, 5 mM glucose, pH 7.4) and needle homogenized with a 25 gauge needle. Protein concentration was determined with a BCA protein assay. Purified membranes were aliquoted, flash frozen in an ethyl alcohol dry ice bath, and stored at −80° C.
Sequence of NaV1.7 (Q15858 whole entry): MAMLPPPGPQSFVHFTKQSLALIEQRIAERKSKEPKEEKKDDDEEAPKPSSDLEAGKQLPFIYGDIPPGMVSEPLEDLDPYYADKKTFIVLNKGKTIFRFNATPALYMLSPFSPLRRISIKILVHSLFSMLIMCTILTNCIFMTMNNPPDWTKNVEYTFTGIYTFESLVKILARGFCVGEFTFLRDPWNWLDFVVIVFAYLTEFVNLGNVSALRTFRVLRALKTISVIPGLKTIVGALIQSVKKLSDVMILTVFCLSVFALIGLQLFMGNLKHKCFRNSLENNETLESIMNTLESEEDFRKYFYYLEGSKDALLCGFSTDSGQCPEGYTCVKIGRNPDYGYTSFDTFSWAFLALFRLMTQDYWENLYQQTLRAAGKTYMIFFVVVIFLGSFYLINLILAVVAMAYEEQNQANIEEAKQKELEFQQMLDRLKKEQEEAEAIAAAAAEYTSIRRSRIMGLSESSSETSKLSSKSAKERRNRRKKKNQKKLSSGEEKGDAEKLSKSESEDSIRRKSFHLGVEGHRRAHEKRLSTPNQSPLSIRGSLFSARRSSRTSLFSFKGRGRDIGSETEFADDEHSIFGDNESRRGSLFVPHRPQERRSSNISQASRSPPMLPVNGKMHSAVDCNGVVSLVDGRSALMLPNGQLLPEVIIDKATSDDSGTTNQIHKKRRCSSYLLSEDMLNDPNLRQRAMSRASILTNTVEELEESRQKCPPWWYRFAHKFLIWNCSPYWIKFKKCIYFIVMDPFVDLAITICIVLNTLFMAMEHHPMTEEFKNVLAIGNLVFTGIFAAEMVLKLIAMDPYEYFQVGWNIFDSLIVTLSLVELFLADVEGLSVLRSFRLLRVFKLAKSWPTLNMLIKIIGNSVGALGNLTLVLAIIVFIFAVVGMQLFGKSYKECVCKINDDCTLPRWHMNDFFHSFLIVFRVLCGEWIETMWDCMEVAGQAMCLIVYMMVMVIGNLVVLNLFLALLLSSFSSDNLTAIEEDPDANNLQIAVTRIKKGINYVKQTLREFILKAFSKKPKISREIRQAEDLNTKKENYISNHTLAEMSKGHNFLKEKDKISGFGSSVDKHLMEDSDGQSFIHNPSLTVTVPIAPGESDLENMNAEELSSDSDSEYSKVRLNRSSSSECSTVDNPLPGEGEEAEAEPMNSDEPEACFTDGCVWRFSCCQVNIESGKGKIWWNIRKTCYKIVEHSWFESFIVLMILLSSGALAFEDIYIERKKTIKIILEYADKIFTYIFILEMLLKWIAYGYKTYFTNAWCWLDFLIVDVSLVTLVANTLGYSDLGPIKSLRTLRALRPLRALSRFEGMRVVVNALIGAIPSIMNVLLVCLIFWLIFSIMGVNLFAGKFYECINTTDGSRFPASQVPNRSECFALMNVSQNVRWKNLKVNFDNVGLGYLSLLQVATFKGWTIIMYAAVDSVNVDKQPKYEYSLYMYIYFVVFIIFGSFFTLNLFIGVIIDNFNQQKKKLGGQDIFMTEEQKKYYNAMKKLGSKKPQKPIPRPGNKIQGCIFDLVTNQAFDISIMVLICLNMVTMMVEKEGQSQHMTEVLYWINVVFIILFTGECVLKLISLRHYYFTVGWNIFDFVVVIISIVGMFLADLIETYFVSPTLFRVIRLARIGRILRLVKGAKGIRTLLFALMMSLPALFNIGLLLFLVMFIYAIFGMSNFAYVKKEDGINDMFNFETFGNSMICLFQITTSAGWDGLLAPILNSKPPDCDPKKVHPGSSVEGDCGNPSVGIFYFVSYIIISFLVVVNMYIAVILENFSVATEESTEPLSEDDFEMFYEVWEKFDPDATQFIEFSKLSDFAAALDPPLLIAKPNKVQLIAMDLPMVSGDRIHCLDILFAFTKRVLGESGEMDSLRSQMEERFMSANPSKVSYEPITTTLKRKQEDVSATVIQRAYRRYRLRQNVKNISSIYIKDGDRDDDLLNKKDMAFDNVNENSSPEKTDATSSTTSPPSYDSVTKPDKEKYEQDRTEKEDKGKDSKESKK
Compound `O=S(=O)(Nc1nccs1)c1cc(Cl)c(NCCC2(O)CCCC2)cc1F` [Example 35, 5-Chloro-2-fluoro-4-((2-(1-hydroxycyclopentyl)ethyl)amino)-N-(thiazol-2-yl)benzenesulfonamide] registered an IC50 of 101 nM.

For the compound `O=S(=O)(Nc1nccs1)c1cc(Cl)c(N[C@H]2CC[C@@H](O)CC2)cc1F` [Example 36, 5-Chloro-2-fluoro-4-(((1s,4s)-4-hydroxycyclohexyl)amino)-N-(thiazol-2-yl)benzenesulfonamide], the IC50 was determined as 210 nM.

`O=S(=O)(Nc1nccs1)c1cc(Cl)c(NCCC2CCCO2)cc1F` (centres unmarked) [Example 39, 5-Chloro-2-fluoro-4-((2-(tetrahydrofuran-2-yl)ethyl)amino)-N-(thiazol-2-yl)benzenesulfonamide] yielded a concentration for half-maximal inhibition (IC50) of 221 nM.

As to `CN1C(C)(C)CC(Nc2cc(F)c(S(=O)(=O)Nc3nccs3)cc2Cl)CC1(C)C` [Example 42, 5-Chloro-2-fluoro-4-((1,2,2,6,6-pentamethylpiperidin-4-yl)amino)-N-(thiazol-2-yl)benzenesulfonamide], the IC50 amounted to 286 nM.

`O=S(=O)(Nc1nccs1)c1cc(Cl)c(NC[C@@H]2CCCNC2)cc1F` [Example 43, (R)-5-Chloro-2-fluoro-4-((piperidin-3-ylmethyl)amino)-N-(thiazol-2-yl)benzenesulfonamide]: the IC50 stood at 272 nM.

`O=S(=O)(Nc1ncns1)c1cc(F)c(OCCC2(c3ccc(Cl)cc3)CCNCC2)cc1F` [Example 44, 4-(2-(4-(4-Chlorophenyl)piperidin-4-yl)ethoxy)-2,5-difluoro-N-(1,2,4-thiadiazol-5-yl)benzenesulfonamide]: the IC50 was determined as 124 nM.

As to `O=S(=O)(Nc1ncns1)c1cc(Cl)c(OCCC2(c3ccc(Cl)cc3)CCNCC2)cc1F` [Example 45, 5-Chloro-4-(2-(4-(4-chlorophenyl)piperidin-4-yl)ethoxy)-2-fluoro-N-(1,2,4-thiadiazol-5-yl)benzenesulfonamide], the IC50 amounted to 39 nM.

Regarding `O=S(=O)(Nc1ncns1)c1cc(F)c(OCCC2(c3ccc(Cl)c(F)c3)CCNCC2)cc1F` [Example 46, 4-(2-(4-(4-Chloro-3-fluorophenyl)piperidin-4-yl)ethoxy)-2,5-difluoro-N-(1,2,4-thiadiazol-5-yl)benzenesulfonamide], the IC50 stood at 110 nM. Against the preceding compound, the IC50 is about 2.8-fold higher.

Turning to `O=S(=O)(Nc1ncns1)c1cc(Cl)c(OCCC2(c3ccc(Cl)c(F)c3)CCNCC2)cc1F` [Example 47, 5-Chloro-4-(2-(4-(4-chloro-3-fluorophenyl)piperidin-4-yl)ethoxy)-2-fluoro-N-(1,2,4-thiadiazol-5-yl)benzenesulfonamide], the IC50 turned out to be 33 nM. Against the preceding compound, the IC50 is about 3.3-fold lower.

Turning to `O=S(=O)(Nc1ncns1)c1cc(F)c(OCCC2(c3ccccc3)CCC(O)CC2)cc1F` (centres unmarked) [Example 48, 2,5-Difluoro-4-(2-(4-hydroxy-1-phenylcyclohexyl)ethoxy)-N-(1,2,4-thiadiazol-5-yl)benzenesulfonamide], the IC50 was 117 nM.

Consider `NC1CCC(CCOc2cc(F)c(S(=O)(=O)Nc3ncns3)cc2F)CC1` (centres unmarked) [Example 60, 4-(2-(4-Aminocyclohexyl)ethoxy)-2,5-difluoro-N-(1,2,4-thiadiazol-5-yl)benzenesulfonamide], for which the IC50 was determined as 367 nM.

Turning to `CNC1CCC(COc2cc(F)c(S(=O)(=O)Nc3ncns3)cc2F)(Cc2ccc(Cl)c(F)c2)CC1` (centres unmarked) [Example 63, 4-((1-(4-Chloro-3-fluorobenzyl)-4-(methylamino)cyclohexyl)methoxy)-2,5-difluoro-N-(1,2,4-thiadiazol-5-yl)benzenesulfonamide], the IC50 is 68 nM. This IC50 lies about 5.4-fold lower than the previous one.

For the compound `O=S(=O)(Nc1ncns1)c1cc(F)c(OCC2(Cc3ccc(Cl)c(F)c3)CCC(O)CC2)cc1F` (centres unmarked) [Example 64, 4-((1-(4-chloro-3-fluorobenzyl)-4-hydroxycyclohexyl)methoxy)-2,5-difluoro-N-(1,2,4-thiadiazol-5-yl)benzenesulfonamide], the IC50 was found to be 285 nM.

With `O=S(=O)(Nc1nccs1)c1cc(Cl)c(NC2CCC3CNCC32)cc1F` (centres unmarked) [Example 65, 5-chloro-2-fluoro-4-((octahydrocyclopenta[c]pyrrol-4-yl)amino)-N-(thiazol-2-yl)benzenesulfonamide], the IC50 was determined as 98 nM.

`O=S(=O)(Nc1nccs1)c1cc(Cl)c(N2CCCC(C3CCNCC3)C2)cc1F` (centres unmarked) [Example 66, 4-([3,4′-bipiperidin]-1-yl)-5-chloro-2-fluoro-N-(thiazol-2-yl)benzenesulfonamide]: the IC50 is 291 nM.

Take `O=S(=O)(Nc1nccs1)c1cc(Cl)c(N2CCC3CCNCC3C2)cc1F` (centres unmarked) [Example 67, 5-chloro-2-fluoro-4-(octahydro-2,7-naphthyridin-2(1H)-yl)-N-(thiazol-2-yl)benzenesulfonamide]: the IC50 is 267 nM. This IC50 and that of the compound before are within 1.5-fold of each other.

Take `COCCN1CCCC1CNc1cc(F)c(S(=O)(=O)Nc2nccs2)cc1Cl` (centres unmarked) [Example 68, 5-chloro-2-fluoro-4-(((1-(2-methoxyethyl)pyrrolidin-2-yl)methyl)amino)-N-(thiazol-2-yl)benzenesulfonamide]: the IC50 came out at 138 nM.

`COCC1CCN(c2cc(F)c(S(=O)(=O)Nc3nccs3)cc2Cl)C1` (centres unmarked) [Example 69, 5-chloro-2-fluoro-4-(3-(methoxymethyl)pyrrolidin-1-yl)-N-(thiazol-2-yl)benzenesulfonamide] yielded an IC50 of 568 nM.

For `O=S(=O)(Nc1nccs1)c1cc(Cl)c(N2CCC(CO)C2)cc1F` (centres unmarked) [Example 70, 5-chloro-2-fluoro-4-(3-(hydroxymethyl)pyrrolidin-1-yl)-N-(thiazol-2-yl)benzenesulfonamide], the IC50 came to 806 nM. This IC50 and that of the compound before are within 1.5-fold of each other.

Turning to `O=S(=O)(Nc1nccs1)c1cc(Cl)c(NCCC2CCCCN2O)cc1F` (centres unmarked) [Example 75, 5-chloro-2-fluoro-4-((2-(1-hydroxypiperidin-2-yl)ethyl)amino)-N-(thiazol-2-yl)benzenesulfonamide], the IC50 came out at 41 nM.

These data come from patent publication US10836758B2, “Acyl sulfonamide NaV1.7 inhibitors” (BRISTOL-MYERS SQUIBB COMPANY, priority 2016, dated 2020).
